Source: paper PMC6934184, “Selective DNA-PKcs inhibition extends the therapeutic index of localized radiotherapy and chemotherapy” (The Journal of Clinical Investigation, 2019)

Biological target: T1, NEK4 (Homo sapiens, UniProt P51957)
T1 construct: purchased Thermo Fisher Scientific (Life Technologies) SelectScreen
Experiment: SelectScreen Z'LYTE
Type: biochemical
Summary of the method: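 NU5455 was profiled across the SelectScreen Broad panel of kinase activity and binding assays. Z'LYTE reactions such as CSF1R ran at apparent Km ATP, while the Adapta CAMK1 assay used ATP listed as 10. Values are given as percent.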

T1 sequence (P51957 whole entry): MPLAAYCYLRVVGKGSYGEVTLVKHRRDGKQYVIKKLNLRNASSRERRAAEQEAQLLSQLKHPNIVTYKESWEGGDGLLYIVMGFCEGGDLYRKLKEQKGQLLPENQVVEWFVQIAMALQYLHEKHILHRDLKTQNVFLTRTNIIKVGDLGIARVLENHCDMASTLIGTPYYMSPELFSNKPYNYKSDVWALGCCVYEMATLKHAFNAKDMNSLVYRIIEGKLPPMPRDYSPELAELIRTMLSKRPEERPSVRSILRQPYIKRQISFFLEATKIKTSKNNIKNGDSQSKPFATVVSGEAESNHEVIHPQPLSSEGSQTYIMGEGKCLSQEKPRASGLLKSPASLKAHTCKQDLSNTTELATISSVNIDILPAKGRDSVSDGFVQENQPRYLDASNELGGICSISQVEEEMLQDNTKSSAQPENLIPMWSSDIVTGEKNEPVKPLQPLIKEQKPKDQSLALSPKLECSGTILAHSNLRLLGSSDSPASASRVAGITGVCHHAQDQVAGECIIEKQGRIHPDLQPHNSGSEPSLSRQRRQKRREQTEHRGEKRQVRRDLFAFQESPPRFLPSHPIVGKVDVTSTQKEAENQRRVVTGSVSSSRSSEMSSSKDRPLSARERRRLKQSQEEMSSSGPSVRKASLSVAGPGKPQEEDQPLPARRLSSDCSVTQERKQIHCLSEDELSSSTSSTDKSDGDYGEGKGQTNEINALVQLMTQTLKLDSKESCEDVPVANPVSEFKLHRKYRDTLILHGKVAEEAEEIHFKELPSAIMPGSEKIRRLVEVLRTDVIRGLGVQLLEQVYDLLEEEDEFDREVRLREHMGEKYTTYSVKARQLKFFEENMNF

CN(C(=O)CN1CCOCC1)c1ccc2sc3c(-c4cccc5c(=O)cc(N6CC7CCC(C6)O7)oc45)cccc3c2c1 [NU5455] showed an inhibition at 1 µM of -11.6%.
